US20190374512A1, “COMPOUNDS FOR TREATMENT OF PANCREATIC CANCER” (UNIVERSITY OF TENNESSEE RESEARCH FOUNDATION, priority 2018, published 2019)

System: PC-3/Txr tumors
Test: PC-3/Txr tumor growth inhibition, oral dosing
Conditions: in vivo

CC(=O)O[C@@]12CO[C@@H]1C[C@H](O)[C@@]1(C)C(=O)[C@H](O)C3=C(C)[C@@H](OC(=O)[C@H](O)[C@@H](NC(=O)OC(C)(C)C)c4ccccc4)C[C@@](O)([C@@H](OC(=O)c4ccccc4)[C@H]21)C3(C)C [docetaxel]
efficacy in PC-3/Txr tumors: lack of efficacy
